Like-named read-outs stand apart in the source and are kept apart here.
Columns and labels:
PfENT1 [1] = molecular target: T1, PfENT1 (Plasmodium falciparum, UniProt Q8IDM6); experiment: cell-based; settings: 125 µM 5-FUrd
PfENT1 [2] = molecular target: T1, PfENT1; type: cell-based
[3] = system: chloroquine-resistant Dd2 parasites; experiment: Dd2 parasite viability / proliferation; type: cell-based, Plasmodium falciparum; settings: for IC50: Plasmodium falciparum, DD2, read-out: IC50 Dd2 parasite viability – high purine media; for IC50 with xanthine as purine source versus hypoxanthine: WT Dd2, 90 µM xanthine vs 10 µM hypoxanthine as sole purine source
PfENT1 [4] = molecular target: T1, PfENT1; experiment: [3H]adenosine uptake into ade2Δ + PfENT1-CO yeast; type: cell-based
[5] = system: fui1Δ::PfENT1-HA-CO strain; experiment: 5-FUrd growth inhibition of PfENT1-HA-CO expressing fui1Δ yeast; type: cell-based; settings: Saccharomyces cerevisiae, read-out: 5-FUrd IC50, yeast cell growth, growth assessed by OD600
PfENT1 [6] = molecular target: T1, PfENT1; settings: cited from earlier work
PfENT4 = experiment: [14C]2-deoxyadenosine uptake into PfENT4-expressing Xenopus oocytes; type: cell-based, Plasmodium falciparum; settings: concentrations up to 50 µM
P. falciparum 3D7 strain = experiment: 3D7 parasite viability / proliferation, 72-h growth assay; settings: ~10× the IC50 concentration; first 24 h of culture
PfENT1 [7] = molecular target: T1, PfENT1; type: cell-based; settings: each compound at 10 µM; 125 µM 5-FUrd
[8] = EC50 5-FUrd growth rescue of fui1Δ::PfENT1-HA-CO, mean ± SD, N ≥ 3

T1 sequence (Q8IDM6 whole entry): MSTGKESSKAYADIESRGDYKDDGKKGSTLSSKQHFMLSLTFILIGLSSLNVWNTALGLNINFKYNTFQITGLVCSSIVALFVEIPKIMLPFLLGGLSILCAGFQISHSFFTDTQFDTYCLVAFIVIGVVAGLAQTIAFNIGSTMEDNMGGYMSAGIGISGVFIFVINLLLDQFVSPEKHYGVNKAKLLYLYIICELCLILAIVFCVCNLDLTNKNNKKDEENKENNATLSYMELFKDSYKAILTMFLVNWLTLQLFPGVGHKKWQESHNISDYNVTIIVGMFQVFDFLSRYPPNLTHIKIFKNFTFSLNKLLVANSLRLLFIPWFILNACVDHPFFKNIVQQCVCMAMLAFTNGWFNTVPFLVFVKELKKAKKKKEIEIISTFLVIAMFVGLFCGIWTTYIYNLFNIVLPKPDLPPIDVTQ

SMILES	EC50 (PfENT1 [1]; [8]) [µM]	IC50 (PfENT1 [2]) [µM]	IC50 [3] [µM]	IC50 with xanthine as purine source versus hypoxanthine [3]	other results
O=C(Nc1ccc(-c2nnc(-c3ccco3)o2)cc1)c1ccco1 [Compound 4, N-{4-[5-(2-furyl)-1,3,4-oxadiazol-2-yl]phenyl}-2-furamide]	5.7 ± 0.8	1.7 ± 0.4	15.3 ± 2.7		
O=C(Nc1ccc(Cl)c(-c2nc3ncccc3o2)c1)c1cccs1 [Compound 19, N-(4-chloro-3-[1,3]oxazolo[4,5-b]pyridin-2-ylphenyl)-2-thiophenecarboxamide]	5.4 ± 0.8	1.7 ± 0.2	37.4 ± 1.6		
Cn1cc(C(=O)C(=O)Nc2ccc(C(=O)N3CCCC3)cc2)c2ccccc21 [Compound 5, 2-(1-methyl-1H-indol-3-yl)-2-oxo-N-[4-(pyrrolidin-1-ylcarbonyl)phenyl]acet amide]	6.5 ± 1.5	2 ± 0.01	28.9 ± 2.6	significantly lower	
Cc1ccccc1/C=C/c1nc2ccccc2c(=O)[nH]1 [Compound 13, 2-[2-(2-methylphenyl)vinyl]-4(3H)-quinazolinone]	4.7 ± 2.9	0.6 ± 0.1	2.6 ± 0.2		IC50 (PfENT1 [4]): 0.0039 ± 0.0016 µM
O=C(Nc1ccc2nc(NC(=O)c3ccco3)sc2c1)c1ccco1 [Compound 1, N,N'-1,3-benzothiazole-2,6-diyldi(2-furamide)]	0.8	0.2 ± 0.1	25.8 ± 1.3	significantly lower	
O=c1[nH]c(=O)n([C@@H]2O[C@H](CO)[C@@H](O)[C@H]2O)cc1F [5-FUrd, 5-fluorouridine]					IC50 [5]: 7 ± 2 µM
OC[C@H]1O[C@@H](n2cnc3c(O)ncnc32)[C@H](O)[C@@H]1O [Inosine, inosine, reference compound]					EC50 (PfENT1 [1]; EC50 rescue of fui1Δ::PfENT1-HA-CO strain growth, OD600): 3300 ± 200 µM; EC50 (PfENT1 [1]; EC50 rescue of fui1Δ::PfENT1-HA-CO strain growth, fluorescence): 5600 ± 2100 µM
O=[N+]([O-])c1ccc(CSc2ncnc3c2ncn3C2OC(CO)C(O)C2O)cc1 (stereo not shown) [nitrobenzylthioinosine]					block of PfENT1 (PfENT1 [6]): do not block
COc1cc(COc2ccc3c(C)cc(=O)oc3c2)cc(OC)c1OC [Compound 3, 4-methyl-7-[(3,4,5-trimethoxybenzyl)oxy] -2H-chromen-2-one]	2.3 ± 0.9	0.6 ± 0.1	36.2 ± 6	significantly lower	inhibition of [14C]2-deoxyadenosine uptake (PfENT4): did not inhibit; parasite stage progression (microscopy) (P. falciparum 3D7 strain): failed to progress beyond the ring stage
O=C(Nc1cccc(-c2nc3ncccc3o2)c1)c1cccc(F)c1 [Compound 6, 3-fluoro-N-(3-[1,3]oxazolo[4,5-b]pyridin-2-ylphenyl)benzamide]	5.7 ± 1.3	1.1 ± 0.1	38.8 ± 4.9		
COc1ccccc1C(=O)Nc1cccc(-c2nc3ncccc3o2)c1 [Compound 7, 2-methoxy-N-(3-[1,3]oxazolo[4,5-b]pyridin-2-ylphenyl)benzamide]	6.4 ± 0.9	1.6 ± 0.01	31 ± 0.6		
OCCN(CCO)c1nc(N2CCCCC2)c2nc(N(CCO)CCO)nc(N3CCCCC3)c2n1 [dipyridamole]					HTS outcome (positive = growth > four SD above no-growth control) (PfENT1 [7]): not positive; block of PfENT1 (PfENT1 [6]): do not block
O=C(Nc1ccc(-c2nc3ncccc3o2)cc1)c1ccccc1Br [Compound 2, 2-bromo-N-(4-[1,3]oxazolo[4,5-b]pyridin-2-ylphenyl)benzamide]	6 ± 1.7	2.1 ± 0.9	52.4 ± 5.7	significantly lower	

Source: article PMC4369170 (ACS chemical biology, 2015)
